Like-named read-outs stand apart in the source and are kept apart here.

Data on one compound can be found in patent US20090044291A1, “DROUGHT-RESISTANT PLANTS AND METHOD FOR PRODUCING THE PLANTS” (D-Helix, priority 2006, published 2009).

The assay has as its target T1, natural ABAR/CHLH protein (Arabidopsis thaliana, UniProt Q9FNB0).
T1 construct: 50 μg proteins of the crude extracts from two-week-old Arabidopsis seedlings; from tissue; host or cells: crude extracts of two-week-old Arabidopsis seedlings / leaves of gl1 (WT), RNAi line 12 and overexpressor line 1
T1 sequence (Q9FNB0 50-1381): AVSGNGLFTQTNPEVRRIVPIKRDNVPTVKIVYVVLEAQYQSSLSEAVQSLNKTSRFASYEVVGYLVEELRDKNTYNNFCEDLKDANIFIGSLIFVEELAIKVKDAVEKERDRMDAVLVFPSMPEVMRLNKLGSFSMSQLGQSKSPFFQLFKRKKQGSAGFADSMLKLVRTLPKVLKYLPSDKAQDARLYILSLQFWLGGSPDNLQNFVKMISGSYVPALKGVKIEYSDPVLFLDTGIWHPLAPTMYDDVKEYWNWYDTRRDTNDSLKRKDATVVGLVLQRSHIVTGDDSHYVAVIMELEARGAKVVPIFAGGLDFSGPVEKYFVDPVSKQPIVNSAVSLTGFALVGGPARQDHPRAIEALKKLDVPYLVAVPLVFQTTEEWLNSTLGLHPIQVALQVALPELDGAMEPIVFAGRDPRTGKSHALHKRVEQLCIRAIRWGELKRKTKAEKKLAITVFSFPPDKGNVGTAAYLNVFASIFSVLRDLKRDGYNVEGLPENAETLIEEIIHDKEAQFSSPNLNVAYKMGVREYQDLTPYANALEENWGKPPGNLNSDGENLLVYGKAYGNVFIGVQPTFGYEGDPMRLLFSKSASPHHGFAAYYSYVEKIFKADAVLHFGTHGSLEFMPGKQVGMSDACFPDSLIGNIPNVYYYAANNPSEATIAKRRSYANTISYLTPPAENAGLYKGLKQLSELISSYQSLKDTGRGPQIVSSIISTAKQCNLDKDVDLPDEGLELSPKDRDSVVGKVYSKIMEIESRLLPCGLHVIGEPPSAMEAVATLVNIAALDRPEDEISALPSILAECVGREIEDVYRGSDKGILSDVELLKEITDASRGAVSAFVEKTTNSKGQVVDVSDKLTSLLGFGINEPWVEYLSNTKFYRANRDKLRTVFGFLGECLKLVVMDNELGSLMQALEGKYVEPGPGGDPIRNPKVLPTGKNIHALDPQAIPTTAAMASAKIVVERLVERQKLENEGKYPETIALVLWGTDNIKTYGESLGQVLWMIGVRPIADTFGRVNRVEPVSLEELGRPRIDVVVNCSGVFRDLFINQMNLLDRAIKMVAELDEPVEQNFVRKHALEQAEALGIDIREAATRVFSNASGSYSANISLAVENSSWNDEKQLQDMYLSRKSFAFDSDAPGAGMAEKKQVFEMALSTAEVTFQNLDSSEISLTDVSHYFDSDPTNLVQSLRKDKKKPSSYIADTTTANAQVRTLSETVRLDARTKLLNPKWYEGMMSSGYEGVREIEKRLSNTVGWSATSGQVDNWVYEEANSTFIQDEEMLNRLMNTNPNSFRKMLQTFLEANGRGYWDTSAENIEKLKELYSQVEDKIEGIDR
Briefly: ABA binding assay with crude extracts of leaves (WT, RNAi, OE lines). As to the method:
The ABA-binding activity of ABAR was assayed according to the previously described procedures (Zhang, D. P. et al., Plant physiol. 128:714-725 (2002)) with modifications. The binding medium (medium A) contained 50 mM Tris-HCl (pH 7.0), 2 mM MgCl2, 1 mM CaCl2, and 250 mM mannitol. The medium for extracting the Arabidopsis natural ABAR/CHLH protein (medium B) was the medium A supplemented with 2 mM 1,4-dithiothreitol (DTT), 1 mM phenylmethyl sulfonyl fluoride (PMSF), […] leupeptin, and […] pepstin A but minus 250 mM mannitol. [^3H](+)ABA (American Radiolabeled Chemicals, 2.37×10^12 Bq mmol^−1, purity 98.4%) at 30 nM, or at a step gradient of concentrations from 0 to 70 nM (when analyzing ABA binding kinetics, see FIG. 1a, d1), together with 2 μg purified yeast-expressed ABAR/CHLH protein or 50 μg proteins of the crude extracts from two-week-old Arabidopsis seedlings, was added into the medium A. The total volume for the binding assays was adjusted to 200 μl. The mixtures were incubated at 25° C. for 30 min, and then quickly placed on ice. Following the addition of 100 μl 0.5% (w/v) Dextran T70-coated charcoal (DCC) to remove the free [^3H]ABA by adsorption, the mixtures were maintained on ice for 5 min, and then centrifuged to remove DCC before the radioactivity in the supernatant was counted. The specific binding was determined by the difference between the radioactivity bound to the immuno-purified ABAR protein or crude extracts of Arabidopsis seedlings incubated only with [^3H]ABA (total binding) and radioactivity bound in the presence of 1,000-fold molar excess of unlabeled (+)-ABA (Sigma; non-specific binding. Non-specific binding in all the assays was lower than 10% of the total binding, see FIG. 1a, d1). The unlabeled ABA was added into the incubation medium at the same time with [^3H]ABA. The ABA-binding activity of the crude ABA-binding protein from Arabidopsis seedling was expressed as the number of nanomoles of [^3H]ABA specifically bound per gram of protein, and that of the immuno-purified ABAR protein as the number of moles of [^3H]ABA per mole of protein. The stereo-specificity of the ABA-binding was assayed as described previously (Zhang, D. P. et al., Plant physiol. 128:714-725 (2002)). […] The conditions of incubation were the same as described above (the incubation medium containing 30 nM [^3H]ABA), and the two ABA isomers and (+)-ABA were assayed in the concentrations ranging from 1 to 1000-fold molar excess of [^3H]ABA.
For the assays of ABA binding in transgenic ABAR-RNAi and -overexpressor plants, we used more than three lines for each type of the transgenic plants and the results obtained were similar. Thus, only were the data with RNAi line 12 and overexpressor line 1 (see FIG. 5) shown in the text.

On to `CC1=CC(=O)CC(C)(C)C1(O)/C=C/C(C)=C\C(=O)O` (stereo not shown) [ABA, abscisic acid], for which the Kd (across WT, RNAi and overexpressing leaf extracts, read-out: Kd) lay within 35 to 38 nM; the Kd (leaf extracts of RNAi transgenic plants, read-out: Kd) is 36 nM; the Kd (leaf extracts of overexpressors of ABAR/CHLH gene (OE, line 1), read-out: Kd) was determined as 38 nM; the Kd (leaf extracts of wild-type plants (WT), read-out: Kd (equilibrium dissociation constant)) was 35 nM. For the same compound, the Bmax (leaf extracts of RNAi transgenic plants) amounted to 25 nmol/g and the Bmax (leaf extracts of overexpressors of ABAR/CHLH gene (OE, line 1)) came out at 80 nmol/g. Besides, the “Bmax (maximum binding)” value (leaf extracts of wild-type plants (WT)) is on record as 60 nmol ABA g^−1 crude protein.

What is called Kd is the free concentration of one partner at which half of the binding sites on the other are occupied at equilibrium, for simple one-to-one binding.
